Counter-ions that a name gives are not always drawn.
Key:
ROS1-positive NSCLC = ROS1-positive NSCLC patients; cited from earlier work
[1] = Stability study of Compound 1 drug substance; assay type: physicochemical
Method: A stability study is conducted for Compound 1. Samples were stored at: 30° C.±2° C./65%±5% Relative Humidity (RH), or 40° C.±2° C./75%±5% RH. At regular intervals (e.g., initial, 1, 3, 6, 9, 12, 18, 24, and 36 months), tests are performed for description, assay, related substances, water content, polymorphic form, and chiral purity.
A stability study was conducted for Compound 1 crystalline free base Form 2. Samples were stored at: (1) 30° C.±2° C./65%±5% Relative Humidity (RH), with data collected at 0, 1, 3, 6, 9, and 12 months; and (2) 40° C.±2° C./75%±5% RH, with data collected at 0, 1, 3, and 6 months. At the indicated time points, tests were performed for description, assay, related substances, water content, polymorphic form, and chiral purity.

[2] = Dynamic vapour sorption (DVS); assay type: physicochemical; details: relative humidity from about 0 to about 90%, about 25° C.
Method: In one embodiment, the solid form is characterized by a DVS isotherm that matches the DVS isotherm depicted in FIG. 6. In one embodiment, the DVS isotherm is as measured at about 25° C.
Approximately, 10-20 mg of sample was placed into a mesh vapour sorption balance pan and loaded into a DVS Advantage dynamic vapour sorption balance by Surface Measurement Systems. The sample was subjected to a ramping profile from 40-90% relative humidity (RH) at 10% increments, maintaining the sample at each step until a stable weight had been achieved (dm/dt 0.004%, minimum step length 30 minutes, maximum step length 500 minutes) at 25° C. After completion of the sorption cycle, the sample was dried using the same procedure to 0% RH and then a second sorption cycle back to 40% RH. Two cycles were performed. The weight change during the sorption/desorption cycles were plotted, allowing for the hygroscopic nature of the sample to be determined. XRPD analysis was then carried out on any solid retained.

[3] = Solid-form stability study of salts of Compound 2 (75% RH, 40° C., 7 days); assay type: physicochemical; details: for Purity (%) After / Purity (%) Before: HPLC; for Purity (%) After / XRPD Pattern After: after 7 days at 75% RH and 40° C.; for Purity (%) Before: before stress test
Method: Solid-form stability studies were completed by weighing approximately 30 mg each of Form A of the camsylate, esylate, mesylate, and sulfate salts of Compound 2 into 4 mL vials and covering with a Kimwipe. The vials were placed inside a humidity chamber set to 75% RH at 40° C. for 7 days. The HPLC and XRPD data was collected to confirm the purity and identity of the solid forms. The four salts were physically and chemically stable. No decrease in purity (i.e. less than 0.1%) or form change was observed after a seven-day stress test at 75% relative humidity (RH) and 40° C. (Table 5).

[4] = Salt screen of Compound 2: XRPD after drying and humidification; details: vacuum 50° C. at least 3 h, >95% RH overnight
[5] = Solubility of salts of Compound 2 and free base in distilled water (gravimetric); assay type: physicochemical; details: for Solubility (mg solid/mL water): distilled water, RT, stirred 3 days, gravimetric; for XRPD Pattern Recovered: solid recovered after slurry in water at RT
Method: Solubility of the scaled-up salts of Compound 2 and free base Compound 2 was assessed in distilled water at RT. Approximately 30 mg of solid was weighed directly into 2 mL vials, and a 6 mm stir bar was added to each vial. Water was then incrementally added to the vials (starting with 1 vol.) and the resulting slurries were left to stir for 10-15 min prior to the next addition. As all solids remained in slurries upon the addition of 1 mL of water, the gravimetric method was adopted, and the vials were stirred at RT for 3 days before centrifuging. Supernatant solutions were recovered and evaporated to dryness at 50° C. in atmosphere on a hot plate, then placed at 50° C. under vacuum (˜−29 inHg) for 3 h before final weighing.

[6] = Solvent solubility screen; assay type: physicochemical; details: organic solvent or mixture, thermodynamic from solid; majority of the solvents investigated
Excerpt: Solids were recovered from these solutions by the addition of anti-solvent to give an indication of solid form, with Form 2 predominantly observed.

Row | SMILES | Purity (%) After [3] | Purity (%) Before [3] | XRPD Pattern After [3] | Stability of crystalline salt pattern to drying and humidification [4] | Solubility (mg solid/mL water) [5] | XRPD Pattern Recovered [5] | also measured
1 | C[C@@H](Oc1cc(-c2cnn(C3CCNCC3)c2)cnc1N)c1c(Cl)ccc(F)c1Cl [Crizotinib] | – | – | – | – | – | – | Median progression-free survival (ROS1-positive NSCLC): 9-19 months
2 | CCn1nc(Cl)c2c1-c1cnc(N)c(c1)O[C@H](C)c1cc(F)ccc1-c1nn(C)cc1C2 [Form 2] | – | – | – | – | – | – | Chemical and physical stability (description, assay, related substances, polymorphic form, chiral purity) ([1]; 30° C.±2° C./65%±5% RH, 12 months (Example 21)): no meaningful change; Chemical and physical stability (description, assay, related substances, polymorphic form, chiral purity) ([1]; 40° C.±2° C./75%±5% RH, 6 months (Example 21)): no meaningful change; DVS weight increase [2]: about 0.3%
3 | CCn1nc(Cl)c2c1-c1cnc(N)c(c1)O[C@H](C)c1cc(F)ccc1-c1nn(C)cc1C2 [lyophilized material] | – | – | – | – | – | – | solubility [6]: > 150 mg/mL

Further lines, with some results ahead:

Row | Purity (%) After [3] | Purity (%) Before [3] | XRPD Pattern After [3] | Stability of crystalline salt pattern to drying and humidification [4] | Solubility (mg solid/mL water) [5] | XRPD Pattern Recovered [5] | SMILES | also measured
4 | 99.94% | 99.92% | Form A | stable to drying and humidification | 8 mg solid/mL water | Form A | CCn1cc(Cc2cn(C)nc2-c2ccc(F)cc2[C@@H](C)Oc2cc(Br)cnc2N)c(Cl)n1 [Mesylate Salt] | –
5 | 99.97% | 99.97% | Form A | stable to drying and humidification | <3 mg solid/mL water | Form A | CCn1cc(Cc2cn(C)nc2-c2ccc(F)cc2[C@@H](C)Oc2cc(Br)cnc2N)c(Cl)n1 [Sulfate Salt] | –
